Tests used:
[1] = tested on: chymotrypsin; settings: selectivity for PSA; cited from earlier work
[2] = target: PSA (Homo sapiens, UniProt P07288); assay: Substrate hydrolysis assay of Abz-peptide spots with purified PSA; format: biochemical; settings: for hydrolysis / substrate activity (in words): compared with c0
Chain of PSA (P07288 25-261): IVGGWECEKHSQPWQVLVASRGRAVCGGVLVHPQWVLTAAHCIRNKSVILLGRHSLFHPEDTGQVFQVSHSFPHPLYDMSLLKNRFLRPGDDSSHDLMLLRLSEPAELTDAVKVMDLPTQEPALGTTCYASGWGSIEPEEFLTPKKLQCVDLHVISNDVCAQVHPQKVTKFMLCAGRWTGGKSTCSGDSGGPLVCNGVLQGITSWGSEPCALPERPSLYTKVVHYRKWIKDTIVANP

hydrolysis / substrate activity (in words) [2] | increase in the hydrolysis rate compared to c0 ([2]; versus c0) | Substance | hydrolysis by chymotrypsin [1]
 |  | HSSKLQ | no detectable hydrolysis
high activity for PSA hydrolysis | 2 fold | GSAKLQ [c7] | 
high substrate activity |  | GSSKYQ [c3] | 

Substance | hydrolysis / substrate activity (in words) [2] | increase in the hydrolysis rate compared to c0 ([2]; versus c0) | hydrolysis by chymotrypsin [1]
GSSKPQ [c4] | almost complete loss of hydrolysis activity |  | 

From publication PMC4559854 (Proteins, 2009)
